Columns and labels:
[1] = test system: human peripheral blood leukocytes (HPBLs); experiment: HPBL 3H-thymidine incorporation (proliferation); assay type: cell-based; set-up: reference not given here
Text: (§1) C. […] This model is used to correlate the effects of biomodulators on the expression of immune response in vitro. The plaque assay disclosed in this reference is used for the determination of the effect of biomodulators on the specificity, class and subclass of individual clones.
(§2) A. Purification of PWM and separation of the differentiative and proliferative functions Pokeweed Mitogen (PWM) and three of its isomitogens, Pa-1 and Pa-5, which are primarily differentiative in nature, and Pa-2 which is primarily proliferative, were prepared according to the method of Waxdal, supra, except that the iso-mitogens were finally purified by isoelectric focusing.

[2] = test system: human peripheral blood leukocytes (HPBLs); experiment: HPBL plaque forming cell (PFC) assay / IgG production in vitro (differentiation); assay type: cell-based; details: for Inhibitory Concentration (inhibiting nonspecific IgG production below normal production) / Stimulation of IgG Production, Concentration / Stimulation of IgG Production, Percent: HPBL; for Stimulation of IgG Production, Percent: at the stimulating concentration
Text: as §1, §2
Human peripheral blood leukocytes were cultured in a standard tissue culture medium. Aliquots of these cultured cells (1,000,000 cells/ml medium) were cultured for 6 hours, and the specified amount of Formula II compound was added; the cells were then cultured for an additional 90 hours. Sheep red blood cells (SRBC) conditioned with class-specific (IpG) goat anti-human antiserum (1:400) for 2 hours; then guinea pig complement (2%) for 2 hours were conjugated to Protein A as described in detail in Radioimmunoimaging and Radioimmunotherapy, Eds.

[3] = test system: canine glioma cells; experiment: in vivo inhibition of canine glioma in nude rats, compound IIc'
Experimental: Fifty four nude rats (Harlan) were injected in the right flank with 5×10^6 canine glioma cells. Animals at the time of injection were between 52 and 63 days old and weighed approximately 200 g. The rats were divided into 7 groups, each group having a total number of 7 rats except for the control group, which totalled 12 animals. Compound IIc' was administered to the experimental animals at one of the following doses for each experimental group: 100 μg/kg, 10 μg/kg, 1 μg/kg, 0.1 μg/kg, 0.01 μg/kg and 0.001 μg/kg (phosphate buffer saline, M, W, F, I.P.). The control animals were injected with PBS (phosphate buffered saline) only. The volume of each injection was 100 μl. The injections of drug were simultaneously begun with injection of tumor cells. The animals were injected with the appropriate dosage of drug ([…]) by I.P. injection and tumor length, width and depth were measured using caliphers each Monday, Wednesday and Friday (M, W, F) morning for approximately 9 weeks. Each point on the graphs represents the total of all rats for each group. […] The data were normalized for the greater number of control animals by multiplying the total tumor volume for the control animals by 7/12.

[4] = test system: canine glioma (CG) specific IgG antibody; experiment: CG-specific antibody (IgG) titer in a dog; assay type: in vivo
[5] = test system: CG tumor; experiment: chromium-release cell-mediated lympholysis vs. CG tumor in a dog; assay type: in vivo
Text: Cellular immune response reflected the results reported in III, 1 above. […] This also is in the absence of CG antigen exposure. […] Thus, both cellular and humoral immunity appear to be modulatable in the absence of antigen by the compounds of the instant invention.

[6] = test system: canine glioma tumors; experiment: canine glioma tumor growth in nude rats, various biomodulators; assay type: in vivo; details: in words
Experimental: C57 BL/6 mice were injected I.M. with B-16 melanoma cells, maintained in culture in the right flank or shoulder. Tumor growth was monitored on a daily basis by physical measurement and by MRI/MRS on a weekly basis. Treatment routes were via intraperitoneal injection using various CAD between 1 μg and 0.001 μg per animal on a M, W, F injection schedule. The animals were terminated by CO2 when the tumors had become 1.0 cm in diameter. Lung metastases were counted.
Various biomodulators were tested in vivo for their effects on canine glioma tumors established and monitored as above for mice, but in nude rats. […] FIGS. 29-30 show the progression of the tumors over time with treatment with, respectively, PWM, Sw, CAD, HHD-2, HHD-3, HHD-4, and HHD-7.

[7] = test system: P-815 mastocytoma cells; experiment: P-815 cytotoxic T lympholysis / cell mediated lympholysis (CML), spleen cells treated in culture; assay type: cell-based, mouse; details: hydrocortisone 2 mg given day -2; hydroxyurea 10^-5M; in words
Experimental: In this case the P-815 is injected into the H-2 incompatible host and in the Brunner and Cerotini model an antigen specific lympholysis event occurs with an optimum on day 11 at an effector/target ratio of 100:1 with 30% lysis If the spleens of the injected animals are removed on day three there is no observable cytotoxicity; however, if the spleen cells are treated with biomodulator (in this case PWM at 100 ng) there is an enormous increase in the cytotoxicity event. […] The slope represents a measure of the efficiency of kill and in the biomodulator treated cells is approximately 1.6 versus 0.24 for the control antigen driven response on day 11. This represents a seven fold increase in simple cytotoxicity efficiency. Again this is concentration dependent and the kinetics of the response are such that if the cells are left in culture for times which approximate the in vivo 11 day optimum then the lysis values approach the untreated controls. […]
P 815 mastocytoma cells are grown in culture or as an ascites (DBA H-2/d) and injected into C57BL/6J mice (H-2/b). […] The specificity of the response is assessed by testing the cytotoxicity against EL-4 cells ([…]) which are NK insensitive and histoincompatible with the original target. […]
Seven effector/target ratios are tested and the percent lysis calculated. […]

[8] = target: T1, HMGCoA reductase (Rattus norvegicus, UniProt P51639); experiment: inhibition of rat liver HMGCoA reductase activity; assay type: biochemical; set-up: from tissue; host or cells: rat liver; details: rat liver
T1 sequence (P51639 1-887): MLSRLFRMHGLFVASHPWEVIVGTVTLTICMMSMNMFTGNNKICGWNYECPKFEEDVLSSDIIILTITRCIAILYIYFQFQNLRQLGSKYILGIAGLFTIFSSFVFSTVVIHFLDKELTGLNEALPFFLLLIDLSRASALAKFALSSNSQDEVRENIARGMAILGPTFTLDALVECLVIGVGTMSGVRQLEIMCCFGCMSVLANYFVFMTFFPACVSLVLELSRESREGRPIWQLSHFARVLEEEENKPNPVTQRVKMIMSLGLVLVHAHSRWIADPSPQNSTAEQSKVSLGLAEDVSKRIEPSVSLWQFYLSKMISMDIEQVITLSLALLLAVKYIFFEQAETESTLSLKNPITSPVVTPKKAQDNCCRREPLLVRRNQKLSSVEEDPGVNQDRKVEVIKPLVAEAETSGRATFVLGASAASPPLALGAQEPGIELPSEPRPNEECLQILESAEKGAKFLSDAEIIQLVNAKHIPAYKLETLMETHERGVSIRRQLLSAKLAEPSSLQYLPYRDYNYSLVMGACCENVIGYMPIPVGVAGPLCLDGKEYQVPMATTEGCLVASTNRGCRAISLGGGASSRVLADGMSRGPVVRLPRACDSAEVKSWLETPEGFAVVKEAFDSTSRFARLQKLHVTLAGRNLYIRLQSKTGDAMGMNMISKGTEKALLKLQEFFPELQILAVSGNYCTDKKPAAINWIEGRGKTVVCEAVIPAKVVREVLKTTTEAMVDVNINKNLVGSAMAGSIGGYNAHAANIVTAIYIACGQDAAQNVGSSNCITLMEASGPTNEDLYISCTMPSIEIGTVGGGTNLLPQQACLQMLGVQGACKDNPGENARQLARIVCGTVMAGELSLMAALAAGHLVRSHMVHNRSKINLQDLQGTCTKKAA
Text: reductase activity; data obtained according to Example IA.

[9] = test system: canine glioma; experiment: in vivo inhibition of canine glioma in dog brain (NMR)
Experimental: Canine glioma was implanted surgically into the brains of four outbred dogs (2×10^6 cells). This procedure normally causes death by tumor growth in 14-28 days.
Simultaneous with implantation, the dogs were each placed on a regimen of compounds according to the invention, Compounds IIa', IIe' and TF004 in various dosages were administered on alternate days (M, W, F) by I.P. injection in phosphate buffered saline.
Tumor progress was assessed at weekly intervals by NMR, employing GdDTPA as imaging agent. This method illuminates vascularization at the surface of the tumor, and provides images which correlate well with neuropathological observations.

[10] = 1 ng/kg I.P., treatment begun on day of implantation

**Q.** `CC(C)OC(=O)C[C@H](O)C[C@@H](O)/C=C/c1c(C(C)C)nc(-c2ccccc2)n1-c1ccc(F)cc1` [Compound IIc'] was tested. Which “Proliferation ((3H) thymidine incorporation into DNA)” value (shortened to “Proliferation”) [1] did it give?
**A.** 1.2

**Q.** And the “Inhibitory Concentration (inhibiting nonspecific IgG production below normal production)” value [2]?
**A.** none found

**Q.** What about the “Stimulation of IgG Production, Concentration” value (shortened to “Stimulation … Concentration”) [2] of the same molecule?
**A.** 100 pM

**Q.** And the “optimal dose in vitro, immune stimulation” value ([2]; HPBL assay)?
**A.** 100 pM

**Q.** What about the “Stimulation of IgG Production, Percent” value [2] of the same molecule?
**A.** 6200%

**Q.** What about the “optimal dose in vivo, equivalent concentration with uniform distribution” value ([3]; 100 ng/kg) of the same molecule?
**A.** 250 pM

**Q.** What about the “cytostatic activity at other doses” value ([3]; 10 and 100 μg/kg, 1 ng/kg, in words) of the same molecule?
**A.** Little or no cytostatic activity

**Q.** And the “most effective dosage for inhibition of canine glioma” value ([3]; I.P., M, W, F)?
**A.** 100 ng/kg

**Q.** And the “antibody titer versus control without antigen” value ([4]; in words)?
**A.** titers of antibody increased over the control antibody titer significantly

**Q.** And the “IC-50% Titer (Anti-CG)” value ([4]; treated 2+ months, tumor regressed)?
**A.** Baseline Values

**Q.** And the “slope M of Y = MX + B (linear regression of toxicity)” value (shortened to “slope M of Y = MX + B”) ([5]; December 14, 1987)?
**A.** 0.05

**Q.** And the “slope M of Y = MX + B” value ([5]; February 9, 1988)?
**A.** 0.35

**Q.** What about the “slope M of Y = MX + B” value ([5]; February 17, 1988) of the same molecule?
**A.** 0.75

**Q.** What about the “slope M of Y = MX + B” value ([5]; March 31, 1988) of the same molecule?
**A.** 0.05

**Q.** What about the CML ([5]; additional 2 months of administration, no CG antigen, in words) of the same molecule?
**A.** significant increase in CML

**Q.** What about the “CG-specific CML” value ([5]; after 14 days, I.P., M, W, F, in words) of the same molecule?
**A.** only baseline levels of CG-specific CML were present

**Q.** With `CC(C)OC(=O)C[C@H](O)C[C@H](O)/C=C/c1c(C(C)C)nc(-c2ccccc2)n1-c1ccc(F)cc1` [HHD-3] as the molecule, how does the “canine glioma tumor regression in nude rats” value [6] read?
**A.** showed no regression effect, just delay of the control growth pattern

**Q.** `CC(C)OC(=O)C[C@H](O)C[C@@H](O)/C=C/c1c(C(C)C)nc(-c2ccccc2)n1-c1ccc(F)cc1` [HHD-7] was tested. Which “canine glioma tumor regression in nude rats” value [6] did it give?
**A.** showed the best regression

**Q.** `C[C@]12CCC(=O)C=C1CC[C@@H]1[C@@H]2[C@@H](O)C[C@@]2(C)[C@H]1CC[C@]2(O)C(=O)CO` [Hydrocortisone] was tested. Which “influence on the biomodulator effect on CML” value [7] did it give?
**A.** reduced the biomodulator effect

**Q.** Which “influence on the biomodulator effect on CML” value [7] does the source give for `NC(=O)NO` [Hydroxyurea] here?
**A.** does not inhibit the biomodulator effect on CML

**Q.** Which results are given for `CC(C)OC(=O)C[C@@H](O)C[C@@H](O)/C=C/c1c(C(C)C)nc(-c2ccccc2)n1-c1ccc(F)cc1` [IIa]?
**A.** Proliferation ((3H) thymidine incorporation into DNA) [1]: 0.98; Inhibitory Concentration (inhibiting nonspecific IgG production below normal production) [2]: none found; Stimulation of IgG Production, Concentration [2]: 200 pM; Stimulation of IgG Production, Percent [2]: 1700%; IC50 [8]: 3150 nM

**Q.** How did the “Proliferation” value [1] turn out when `CC(C)OC(=O)C[C@@H](O)C[C@H](O)/C=C/c1c(C(C)C)nc(-c2ccccc2)n1-c1ccc(F)cc1` [IIb] was run?
**A.** 1.0

**Q.** And the “Inhibitory Concentration (inhibiting nonspecific IgG production below normal production)” value [2]?
**A.** none found

**Q.** And the “Stimulation … Concentration” value [2]?
**A.** 200 pM

**Q.** What about the “Stimulation of IgG Production, Percent” value [2] of the same molecule?
**A.** 1700%

**Q.** What about the IC50 [8] of the same molecule?
**A.** 1350 nM

**Q.** How did the “Proliferation” value [1] turn out when `CC(C)OC(=O)C[C@H](O)C[C@H](O)/C=C/c1c(C(C)C)nc(-c2ccccc2)n1-c1ccc(F)cc1` [IId, reference compound] was run?
**A.** 0.66

**Q.** And the “Stimulation … Concentration” value [2]?
**A.** 100000 pM

**Q.** And the “Stimulation of IgG Production, Percent” value [2]?
**A.** 320%

**Q.** What about the IC50 [8] of the same molecule?
**A.** 2 nM

**Q.** `CC(C)c1nc(-c2ccccc2)n(-c2ccc(F)cc2)c1/C=C/[C@H](O)C[C@H](O)CC(=O)O` [TF-002] was tested. Which “day by which tumor regressed” value ([9]; pre-treated, 10 ng/kg I.P. M, W, F) did it give?
**A.** ≤ 19 days

**Q.** And the later tumor status ([9]; pre-treated, 10 ng/kg, in words)?
**A.** free of tumor

**Q.** Which results are given for `CC(C)c1c(/C=C/C(O)CC(O)CC(=O)O)n(-c2ccc(F)cc2)c2ccccc12` (stereo not shown) [TF-004]?
**A.** day of complete regression [9, 10]: ≤ 21 days; day of substantial regression [9, 10]: ≤ 15 days; day of complete regression ([9]; treatment begun on Day 11): ≤ 30 days; day of substantial regression ([9]; treatment begun on Day 11): ≤ 21 days
